From patent US7417069B2, “Halogenated triptolide derivatives as immunomodulators and anticancer agents” (priority 2003, dated 2008)
Entries after “also recorded” stand apart in the source; their conditions may differ.

Experiments:
[1] = system: human T cell lymphoma (Jurkat) cells; assay: Cytotoxicity (MTT) assay; format: cell-based; conditions: 24 h, in comparison with triptolide (FIG. 1)
Experimental: Test compounds were dissolved in DMSO at a concentration of 20 mM. Further dilutions were done in RPMI 1640 medium (GIBCO, Rockville, Md.) supplemented with 10% Fetal Calf Serum (HyClone Laboratories, Logan, Utah).
Cytotoxicity of the compounds was determined in a standard MTT assay using Cell Proliferation Kit I (#1 465 007, Roche Diagnostics, Mannheim, Germany). Briefly, human T cell lymphoma (Jurkat) cells (4×10^5 per well) were cultured for 24 h, in 96-well tissue culture plates, in the presence of serial three-fold dilutions of test compounds or medium containing the same concentration of DMSO as in the test samples at each dilution point. The cultures were then supplemented with 10 μl/well MTT reagent for 4h and then with 0.1 ml/well solubilizing reagent for an additional 16 h. Optical density at 570 nm (OD570) was measured on a ThermoScan™ microplate reader (Molecular Devices, Menlo Park, Calif.). The data is presented as OD570 values versus concentration of the compounds. The results for PG763 (14-deoxy-14α-fluorotriptolide), compared with PG490 (triptolide) and a medium control, are given in FIG. 1.

[2] = system: IL-2 production in Jurkat cells; assay: IL-2 production assay (immunosuppression assay); format: cell-based, human; conditions: for fold less potent than triptolide in the immunosuppression assay: inhibition of IL-2 production in Jurkat cells, relative to triptolide (FIGS. 4A-B)
Experimental: Test samples were diluted to 1 mM in complete tissue culture medium. Aliquots were placed in microculture plates that had been coated with anti-CD3 antibody (used to stimulate the production of IL-2 by Jurkat cells), and serial dilutions were prepared so that the final concentration would encompass the range of 0.001 to 10,000 nM in log increments. Cells from an exponentially expanding culture of Jurkat human T cell line (#TIB-152 obtained from American Type Culture Collection, Manassas, Va.) were harvested, washed once by centrifugation, re-suspended in complete tissue culture medium, and diluted to a concentration of 2×10^6 cells/ml. A volume of 50 μl of Jurkat cells (1×10^5 cells) was added to wells containing 100 μl of the diluted compounds, 50 μl of PMA (10 ng/ml) was added to each well, and the plates were incubated at 37° C. in a 5% CO2 incubator. After 24 hours, the plates were centrifuged to pellet the cells, 150 μl of supernatant was removed from each well, and the samples were stored at −20° C. The stored supernatants were analyzed for human IL-2 concentration using the Luminex 100 (Luminex Corporation, Austin, Tex.), Luminex microspheres coupled with anti-IL-2 capture antibody, and fluorochrome-coupled anti-IL-2 detection antibody. The data were expressed as pg/ml of IL-2.
The data were plotted as the concentration of compound versus IL-2 concentration. The results for PG763 (14-deoxy-14α-fluorotdptolide), compared with PG490 (triptolide) and a solvent control, are given in FIG. 2. Comparative data for other 14-substituted triptolides, 14α-hydroxytriptolide (also referred to as epitriptolide; designated PG524) and 14β-(methylthio)methyltriptolide (designated PG691), compared with PG490 (triptolide), are given in FIGS. 4A-B.

[3] = system: Jurkat human T lymphoma cell line; assay: Annexin V apoptosis assay; format: cell-based; conditions: induction of apoptosis in Jurkat cells, 24 hours, relative to triptolide (FIGS. 3A-B)
Experimental: Test samples were diluted to 1 mM in complete tissue culture medium (RPMI 1640 medium plus 5% heat-inactivated fetal calf serum, 1% HEPES, 1% pen/strep, 1% glutamine). Aliquots were placed in microculture plates and serial dilutions were prepared so that the final concentration would encompass the range of 2 to 6,000 nM with half-log increments. Cells from an exponentially expanding culture of the Jurkat human T lymphoma cell line (#TIB-152 obtained from American Type Culture Collection, Manassas, Va.) were harvested, washed once by centrifugation, re-suspended in complete tissue culture medium, and further diluted to a concentration of 1×10^6 cells/ml. A volume of 100 μl of the cells (1×10^5 cells) was added to wells containing 100 μl of the diluted compounds, and the plates were incubated at 37° C. in a 5% CO2 incubator.
After 24 hours, the plates were centrifuged to pellet the cells, and the cells were washed twice with 2% heat-inactivated fetal calf serum in PBS. […] The contents of the wells were individually transferred into test tubes, and apoptosis was analyzed using a FACSCalibur flow cytometer (BD Immunocytometry Systems, San Jose, Calif.). Cells positive for Annexin V binding were considered to be apoptotic, and the data were calculated as percent apoptotic cells. […]

| Structure (SMILES) | cytotoxicity in Jurkat cells [1] | inhibition of IL-2 production in Jurkat cells ([2]; anti-CD3 and PMA stimulated, 24 hours, in comparison with triptolide (FIG. 2)) | fold less potent than triptolide in the apoptosis assay [3] [fold] | fold less potent than triptolide in the immunosuppression assay [2] |
| --- | --- | --- | --- | --- |
| CC(C)[C@]12O[C@H]1[C@@H]1O[C@]13[C@]1(O[C@H]1C[C@H]1C4=C(CC[C@@]13C)C(=O)OC4)[C@H]2F [PG763, 14-deoxy-14α-fluorotriptolide] | nearly equivalent to that of triptolide; also recorded: in a dose-dependent manner, at concentrations comparable to those in similar assays using triptolide | nearly equivalent to that of triptolide; also recorded: in a dose-dependent manner, at concentrations comparable to those in similar assay using triptolide |  |  |
| CSCOC1C2(C(C)C)OC2C2OC23C2(C)CCC4=C(COC4=O)C2CC2OC213 (stereo not drawn) [14β-(methylthio)methyl triptolide, 14-β-(methylthio)methyl triptolide] |  |  | ~40 | approximately 60 fold |
| CC(C)[C@]12O[C@H]1[C@@H]1O[C@]13[C@]1(O[C@H]1C[C@H]1C4=C(CC[C@@]13C)C(=O)OC4)[C@H]2O [epitriptolide, 14-α-hydroxytriptolide] |  |  | ~25 | approximately 30 fold |
